Measurements reported in ChEMBL document CHEMBL1142160, “Overexpression and initial characterization of the chromosomal aminoglycoside 3'-O-phosphotransferase APH(3')-IIb from Pseudomonas aeruginosa” (2007).

How the values were obtained:
Type in all cases: functional
Pseudomonas aeruginosa = assay: Antibacterial activity against Pseudomonas aeruginosa ATCC 27853
Escherichia coli [1] = assay: Antibacterial activity against Escherichia coli BL21(DE3) expressing Pseudomonas aeruginosa APH(3')-2b
Escherichia coli [2] = assay: Antibacterial activity against Escherichia coli BL21(DE3)

For GENTAMICIN, the MIC (Pseudomonas aeruginosa) was 2 µg/mL, the MIC (Escherichia coli [1]) was 6 µg/mL and the MIC (Escherichia coli [2]) was 6 µg/mL.
